Data reported in patent EP1493438A1, “Vanilloid receptor (VR) inhibitors for treatment of Human Immunodeficiency Virus (HIV)-mediated pain states” (Bayer HealthCare AG, priority 2003, dated 2005).
Values belong to the molecule of their own block, whether it stands above or below them.

Legend:
[1] = system: HIV patients; conditions: cited from earlier work; for efficacy in clinical trails investigating HIV-mediated neuropathic pain: Shlay et al. (1998), Kieburtz et al. (1998)
[2] = system: rat sciatic nerve; assay: CGRP-release from isolated rat sciatic nerve upon stimulation (Method C); conditions: Capsaicin 100 nM, t0-t5 stimulation period
[3] = system: rat DRG neurons; assay: Inhibition of gp120-mediated CGRP-release from rat DRG neurons (Method B); conditions: for IC50: Rattus norvegicus, DRG neuron; for inhibition of gp120-mediated CGRP release from DRG neurons: result in words
[4] = system: rat sciatic nerve; assay: gp120-mediated CGRP release from rat sciatic nerve in the presence or absence of VR1 inhibitors (Method C); conditions: for block of CGRP release from gp120-stimulated sciatic nerve: result in words; for CGRP release: gp120 250 pg/ml in the presence of CAZ (1 µM) or Cpd. 1 (20 nM)

Compound: CN(C)CCC=C1c2ccccc2CCc2ccccc21 [Amitriptyline]
efficacy in clinical trails investigating HIV-mediated neuropathic pain [1]: completely ineffective

Compound: COc1cc(CNC(=O)CCCC/C=C/C(C)C)ccc1O [CAPS, Capsaicin]
pain in HIV patients with chronic DSP ([1]; randomized, double-masked clinical trail, Paice et al. (2000)): strongly increased pain
CGRP-release ([2]; time 0 min): 0.05923 ng/mg ng CGRP/mg nerve dry weight
CGRP-release ([2]; time 5 min): 5.9+/-1.3 ng/mg ng CGRP/mg nerve dry weight
CGRP-release ([2]; time 10 min): 5.3+/-0.2 ng/mg ng CGRP/mg nerve dry weight
CGRP-release ([2]; time 20 min): 4.0+/-0.1 ng/mg ng CGRP/mg nerve dry weight
CGRP-release ([2]; time -5 min): 0 ng CGRP/mg nerve dry weight

Compound: Oc1cc2c(cc1O)CN(C(=S)NCCc1ccc(Cl)cc1)CCC2 [CAZ, Capsazepin]
IC50 [3]: 0.109 µM
inhibition of gp120-mediated CGRP release from DRG neurons [3]: completely inhibited
block of CGRP release from gp120-stimulated sciatic nerve [4]: capable to block CGRP release

Compound: N#CC(=C(/N)Sc1ccccc1N)/C(C#N)=C(\N)Sc1ccccc1N [Compound U0126]
IC50 [3]: 0.0019 µM
inhibition of gp120-mediated CGRP release from DRG neurons [3]: completely inhibited

Compound: O=C(NCc1ccc(OC(F)(F)F)cc1)Nc1cccc2c1CC(O)CC2 (centres unmarked) [Cpd. Example 1, N-(7-hydroxy-5,6,7,8-tetrahydro-naphthalen-1-yl)-N'-(4-trifluoromethoxy-benzyl)-urea]
IC50 [3]: 0.00044 µM
inhibition of gp120-mediated CGRP release from DRG neurons [3]: completely inhibited
CGRP release ([4]; time 0 min): 0
CGRP release ([4]; time 5 min): 0
CGRP release ([4]; time 10 min): 0
CGRP release ([4]; time 20 min): 0
CGRP release ([4]; time -5 min): 0
block of CGRP release from gp120-stimulated sciatic nerve [4]: capable to block CGRP release

Compound: CC(C)Cc1ccc(C(C)C(=O)O)cc1 (centres unmarked) [Ibuprofen]
inhibition of gp120-mediated CGRP release from DRG neurons [3]: can not inhibit

Compound: Cc1cccc(C)c1OCC(C)N (centres unmarked) [Mexiletine]
efficacy in clinical trails investigating HIV-mediated neuropathic pain [1]: completely ineffective

IC50 [3]: 43 µM
Compound: CC(Cc1ccc(O)c(O)c1)C(C)Cc1ccc(O)c(O)c1 (centres unmarked) [NGDA, Nordihydroguaiaretic Acid]
inhibition of gp120-mediated CGRP release from DRG neurons [3]: completely inhibited

IC50 [3]: 0.00936 µM
Compound: COc1cccc(-c2cc(=O)c3ccccc3o2)c1N [PD98059]
inhibition of gp120-mediated CGRP release from DRG neurons [3]: completely inhibited

Compound: CCN(CC)CCCC(C)Nc1c2ccc(Cl)cc2nc2ccc(OC)cc12 (centres unmarked) [QN, Quinacrine]
IC50 [3]: 1.53 µM
inhibition of gp120-mediated CGRP release from DRG neurons [3]: completely inhibited

Compound: C[S+]([O-])c1ccc(-c2nc(-c3ccncc3)c(-c3ccc(F)cc3)[nH]2)cc1 (centres unmarked) [SB203580]
inhibition of gp120-mediated CGRP release from DRG neurons [3]: completely inhibited
